Source: patent publication US20200400567A1, “FUSION POLYPEPTIDE” (PEKING UNIVERSITY, priority 2017, published 2020)
Entries after “also recorded” stand apart in the source; their conditions may differ.

Experiments:
[1] = tested on: Gαq-mediated signal transduction pathway; experiment: TGFα release in Gαq stable cell lines; format: cell-based; conditions: gradient concentrations of ACh
From the text: The coupling of GRAB-ACh4.0 and downstream Gαq was detected. First, three stable cell lines were constructed based on the Gαq cell line: M3R (marked as CHRM3 in FIG. 51), GRAB-ACh4.0, and blank (marked as Gq in FIG. 51) cell lines; then, the release of TGFα was used to characterize the extent to which the Gαq protein was activated. […], causing the release of TGF-α with alkaline phosphatase even when there is no signal from Gαq. Therefore, TPA was added to cells as a positive control.

[2] = tested on: GRAB-GDA3.0 signal in mushroom body (MB); experiment: Odor-stimulated GRAB-GDA3.0 signal in mushroom body, in vivo two-photon imaging; set-up: species or system Drosophila; conditions: for effect on odor (IA)-stimulated GDA signal in MB β' lobe: 10 μM antagonist in imaging solution, n=6
Protocol: Drosophila were kept in a 25-degree incubator with a standard medium. […] The adult Drosophila to be tested were transferred to a new culture tube within 0-2 days after emergence, and left at room temperature for 8-12 days. Before the imaging, the Drosophila were first fixed in a small dish, and then the square skull part near the eye was surgically removed to expose part of the brain. The adipose tissue and air sacs near the antennal lobes to be imaged were surgically removed to prevent interference with the fluorescent signal. In order to further reduce the degradation of image quality caused by the movement of Drosophila during the imaging, surgical forceps were used to cut the muscles underneath its halter. Throughout the dissection and imaging procedures, the brain of Drosophila was kept in a pre-chilled physiological solution, and the formula thereof is as follows: […]
Drosophila imaging was performed using an Olympus two-photon microscope, including Olympus BX61 WI microscope, 25×NA: 1.05 water lens, and Ti:Sapphire laser mode-locked laser for two-photon excitation. For GRAB sensor imaging experiments, the wavelength of the […] was set to 950 nm in order to successfully excite the fluorescent protein to produce fluorescence. The odor molecule isoamyl acetate (IA) used for stimulating Drosophila was purchased from Sigma, and was diluted in mineral oil at a ratio of 1:100. In the experiment, the isoamyl acetate was further diluted 5-40 times by mixing with air. The air mixed with odor molecules was provided at a position about 1 cm away from the tentacles of the Drosophila through a cavity about 1 cm wide on the experimental table. The odor molecule of different concentrations was tested by controlling the airflow. Each imaging cycle was 17.8 seconds, of which 5 to 10 seconds was the time for providing specific odor molecules. After the imaging experiment for odor function, the imaging area was scanned layer by layer with high resolution setting to obtain the distribution information of the olfactory bulb, which was later identified based on the information of olfactory bulb distribution at the antennal lobe reported in the literature.
The transgenic Drosophila UAS-GRAB-GDA3.0 was constructed to express the GRAB-GDA3.0 sensor in specific cells, driven by the corresponding GAL4 strain. First, GRAB-GDA3.0 was expressed in dopaminergic neurons (DAN) in all Drosophila, and the response induced by odor (isoamyl acetate) was examined by in vivo two-photon imaging (FIG. 39A).
A pharmacological study was performed on GRAB-GDA3.0.
The rate of GDA signal attenuation between normal Drosophila and Drosophila with reduced DAT expression was compared (this is the experiment of gene level research using DAT-RNAi described later). In DAN, the dopamine transporter (DAT) is located in the presynaptic membrane and […] DA intermittently and cyclically from the synapse. DAT-RNAi was used to inhibit DAT expression in DAN (FIG. 40G).

human DRD2 receptor = experiment: GRAB-GDA3.0 fluorescence response in HEK293T cells, drug perfusion; format: cell-based
From the text: There are 5 subtypes of human dopamine receptors in the body, which are named DRD1-DRD5. For constructing a fluorescent sensor, the receptors were screened preliminarily by inserting a fluorescent protein at any position in the third intracellular loop of the receptor. […] Specifically, for the third intracellular loop of the human DRD2 receptor, the insertion sites were set every 15 amino acids. Human DRD2 receptors inserted with circular permutated fluorescent proteins at different positions were expressed in HEK293T cells, and drug perfusion experiments were conducted with dopamine. […] After the positions sensitive to conformational change were determined, the surrounding amino acid sites thereof were further screened. The sites surrounding the amino acid position 252 at N-terminus and the sites surrounding the amino acid position 357 at the C-terminus were combined and different sensors were constructed. The sensors were expressed in HEK293T cells and subjected to drug perfusion experiments with dopamine. […] The peptide linkers were GG at the N-terminus and GGAAA at the C-terminus.

[3] = target: GRAB-Oxt-Cter580 sensor (human); experiment: cell-based or functional assay
[4] = tested on: human acetylcholine receptor M3R subtype; experiment: GRAB-ACh 1.0 in acute mouse hippocampus brain slices, local perfusion, two-photon imaging; format: cell-based, mice; conditions: GRAB-ACh 1.0 expressing cells in brain slices
From the text: The DNA encoding GRAB-ACh 1.0 sensor was packed in lentivirus and expressed in the hippocampal neurons of mice, and its fluorescence performance was detected by local perfusion of acetylcholine.

Sequence of GRAB-Oxt-Cter580 sensor (human) (chain, as listed by the source limits assumed): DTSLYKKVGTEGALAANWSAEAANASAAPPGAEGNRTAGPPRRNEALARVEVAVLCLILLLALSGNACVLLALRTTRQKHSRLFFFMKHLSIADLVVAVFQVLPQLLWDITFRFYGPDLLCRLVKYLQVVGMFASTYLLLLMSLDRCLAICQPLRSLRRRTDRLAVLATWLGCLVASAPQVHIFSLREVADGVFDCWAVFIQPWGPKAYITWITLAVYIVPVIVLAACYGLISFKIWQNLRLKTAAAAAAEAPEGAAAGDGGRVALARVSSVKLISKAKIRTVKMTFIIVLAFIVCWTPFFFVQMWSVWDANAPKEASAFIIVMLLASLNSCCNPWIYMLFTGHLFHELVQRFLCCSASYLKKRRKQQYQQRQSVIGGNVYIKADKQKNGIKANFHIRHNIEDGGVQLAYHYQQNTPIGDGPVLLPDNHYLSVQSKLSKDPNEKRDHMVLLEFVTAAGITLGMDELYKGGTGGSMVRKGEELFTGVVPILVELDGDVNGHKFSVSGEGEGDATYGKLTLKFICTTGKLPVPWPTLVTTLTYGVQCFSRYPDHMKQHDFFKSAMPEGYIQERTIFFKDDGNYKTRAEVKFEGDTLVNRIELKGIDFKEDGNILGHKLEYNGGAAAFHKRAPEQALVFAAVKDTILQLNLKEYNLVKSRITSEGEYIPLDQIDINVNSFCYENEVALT

WT-M3R: natural M3 type acetylcholine receptor without cpEGFP insertion
activation of Gαq-mediated signal transduction pathway [1]: activated the Gαq-mediated signal transduction pathway

O=C(CCCN1CCC(O)(c2ccc(Cl)cc2)CC1)c1ccc(F)cc1 [Haloperidol]
effect on odor (IA)-stimulated GDA signal in MB β' lobe ([2]; listed as halo): can be blocked
effect on odor (IA)-stimulated GDA signal in MB β' lobe ([2]; listed as haloperidol): completely blocked
activation or block of GRAB-GDA3.0 (human DRD2 receptor): blocked; also recorded: inhibited

Oxytocin (from UniProt P01178 20-28) (peptide)
change in fluorescence signal (ΔF/F0) of the sensor on perfusion with the agonist (% ΔF/F0 at 1 µM Oxytocin) [3]: 10

C[N+](C)(C)CC#CCN1CCCC1=O [Oxo-M]
fluorescence response to agonist [4]: respond to; also recorded: obvious fluorescence enhancement

GRAB-GDA3.0: human DRD2 receptor, positions 254 to 360 truncated, cpEGFP inserted, linkers GG-GGAAA, SEQ ID NO: 26
decay τ of odor-induced GDA signal ([2]; DAT-RNAi Drosophila): 1.85 s
decay τ of odor-induced GDA signal ([2]; WT Drosophila): 0.48 s
signal change (human DRD2 receptor; saturated concentration of dopamine, HEK293T cells): 110%
